Source: patent publication US12201632B2, “Levoketoconazole for treatment of congenital adrenal hyperplasia and primary aldosteronism” (Strongbridge Dublin Limited, priority 2018, dated 2025)
Marks after values point to notes of the source that are not given here.

Key:
HAC15 cells [1] = experiment: Cortisol production by HAC15 cells (immunoassay); format: cell-based, Human; settings: HAC15, 10 nM ACTH
Description: Human adrenocortical carcinoma HAC15 and mouse corticotroph AtT20 cells were used, purchased as a kind gift by Dr. W. Rainey, and obtained from Dr. J. Tooze (European Organization for Molecular Biology), respectively. Both cell lines were cultured in 75 cm^2 flasks at 37° C. in a humidified incubator (Greiner Bio-One, Alphen a/d Rijn, the Netherlands) at 5% CO2. Dulbecco's Modified Eagle Medium F12 containing 5% fetal calf serum was used for HAC15, whereas AtT20 cells were cultured in Dulbecco's minimal essential medium (DMEM) supplemented with 10% fetal calf serum. Both mediums were supplemented with L-glutamine (2 mmol/L) and penicillin (10^5 U/L). Short tandem repeat (str) profiling using a Powerplex Kit (Promega, Leiden, the Netherlands) of HAC15 and AtT20 gave results consistent with the ATCC database, confirming the identity of both cell lines. Medium and supplements were obtained from Invitrogen, Breda, the Netherlands. Once a week, cells were harvested with trypsin (0.05%)-EDTA (0.53 mM) and resuspended in culture medium. Levoketoconazole (COR-003) and racemic ketoconazole (both from Cortendo AB) were dissolved in absolute ethanol (EtOH), according to manufacturer's instructions, and stored at −20° C. at a stock concentration of […]. At the start of each experiment, both drugs were freshly prepared and diluted in EtOH in the correct concentrations. Synacten (synthetic ACTH, Novartis Pharma A.G.) stock concentration was stored at 4° C. and dissolved in culture medium at the day of use. The final concentrations of ACTH were chosen based on a dose-response curve in HAC15 cells and previously reported studies in the literature. For HAC15, 200,000 and 100,000 cells were plated in 0.5 ml medium in 24 well plates for experiments of 1 and 3 days, respectively. […]
Cortisol concentrations were measured in the supernatant using a chemiluminescence immunoassay system (Immulite 2000XPi; Siemens DPC Inc., Los Angeles, Calif., USA). In addition, we carried out multi-steroid analysis by liquid chromatography/mass spectrometry (LC/MS-MS) to accurately quantify androstenedione, corticosterone, cortisol, 11-deoxycortisol, DHEA, DHEAS, progesterone, 17-hydroxyprogesterone, and testosterone. […] Steroids were quantified with respect to a calibration series, with internal standards. Steroids were quantified on a Xevo TQS LC-MS/MS (Waters Chromatography).
Statistical analysis was performed using Graphpad Prism 6.0 (Graphpad Software, San Diego, CA). […] Effects of both compounds on the steroid profile were measured as absolute change compared to control and compared using the Student's t-test. When assessing differences between effects of both compounds, the percentage change was evaluated and compared in order to correct for differences in the vehicle treated control cells. […]

[2] = test system: EAS associated adrenal hyperplasia cultures; experiment: Cortisol production in primary EAS associated adrenal hyperplasia cultures; format: cell-based, human; settings: EAS associated hyperplasia no. 1, ACTH (85 μM), mean percentage increase of cortisol production compared to control
Description: (§1) To obtain primary cultures, adrenal specimens (adrenocortical adenomas, adrenal hyperplasias and adrenocortical carcinomas) were collected after adrenalectomy at the department of Surgery, Erasmus University Medical Center, Rotterdam, the Netherlands, between April 2016 and May 2018. The study was conducted under guidelines that have been approved by the Medical Ethics Committee of the Erasmus Medical Center and informed consent was obtained from all patients. Immediately after surgery, specimens were minced into small pieces of 2-3 mm^3, washed in culture medium and centrifuged for 5 minutes at 600 g. The tissue was stored overnight in culture medium at 4° C., where after the tissue was centrifuged again and the supernatant was removed. Fragments were dissociated using 10-25 ml collagenase type 1 (2 mg/ml: Sigma-Aldrich), followed by incubation at 37° C. for up to two hours. Ficoll (GE healthcare) density gradient separation was used once or twice as required in order to separate contaminating red blood cells from the tumor cells. Cell viability and cell amount were counted by trypan blue exclusion. Dissociated cells were plated at a density of 10^5 cells per well. ACTH-secreting corticotroph pituitary adenoma tissue from patients with Cushing's disease (n=2) was available after transsphenoidal surgery. Single-cell suspensions of the pituitary adenoma tissues were prepared as previously described in detail.
(§2) Owing to a limited number of cells obtained from the specimens, not all experiments were carried out in every primary culture.
(§3) Cortisol concentrations were measured in the supernatant using a chemiluminescence immunoassay system (Immulite 2000XPi; Siemens DPC Inc., Los Angeles, Calif., USA). In addition, we carried out multi-steroid analysis by liquid chromatography/mass spectrometry (LC/MS-MS) to accurately quantify androstenedione, corticosterone, cortisol, 11-deoxycortisol, DHEA, DHEAS, progesterone, 17-hydroxyprogesterone, and testosterone. Concentrations that were tested on the LC/MS-MS were closest to 50% inhibition or maximal inhibition of cortisol as determined by the immunoassay. Steroids were quantified with respect to a calibration series, with internal standards. Steroids were quantified on a Xevo TQS LC-MS/MS (Waters Chromatography).
(§4) Statistical analysis was performed using Graphpad Prism 6.0 (Graphpad Software, San Diego, CA). Non-linear regression curve fitting program was used to calculate the half maximal inhibitory concentrations (IC50) on cortisol production. Effects of both compounds on the steroid profile were measured as absolute change compared to control and compared using the Student's t-test. When assessing differences between effects of both compounds, the percentage change was evaluated and compared in order to correct for differences in the vehicle treated control cells. Values of P<0.05 were considered statistically significant and data are presented as mean SEM.

[3] = test system: primary human adrenocortical carcinoma cultures; experiment: Cortisol production in primary adrenocortical carcinoma cultures; format: cell-based; settings: ACC no. 3, ACTH (85 μM), mean percentage increase of cortisol production compared to control
Description: as §1, §2, §3, §4

HAC15 cells [4] = experiment: Steroid profile by LC/MS-MS in HAC15 cells; format: cell-based, Human; settings: HAC15
Description: Human adrenocortical carcinoma HAC15 and mouse corticotroph AtT20 cells were used, purchased as a kind gift by Dr. W. Rainey, and obtained from Dr. J. Tooze (European Organization for Molecular Biology), respectively. Both cell lines were cultured in 75 cm^2 flasks at 37° C. in a humidified incubator (Greiner Bio-One, Alphen a/d Rijn, the Netherlands) at 5% CO2. Dulbecco's Modified Eagle Medium F12 containing 5% fetal calf serum was used for HAC15, whereas AtT20 cells were cultured in Dulbecco's minimal essential medium (DMEM) supplemented with 10% fetal calf serum. Both mediums were supplemented with L-glutamine (2 mmol/L) and penicillin (10^5 U/L). Short tandem repeat (str) profiling using a Powerplex Kit (Promega, Leiden, the Netherlands) of HAC15 and AtT20 gave results consistent with the ATCC database, confirming the identity of both cell lines. Medium and supplements were obtained from Invitrogen, Breda, the Netherlands. Once a week, cells were harvested with trypsin (0.05%)-EDTA (0.53 mM) and resuspended in culture medium. Levoketoconazole (COR-003) and racemic ketoconazole (both from Cortendo AB) were dissolved in absolute ethanol (EtOH), according to manufacturer's instructions, and stored at −20° C. at a stock concentration of […]. At the start of each experiment, both drugs were freshly prepared and diluted in EtOH in the correct concentrations. Synacten (synthetic ACTH, Novartis Pharma A.G.) stock concentration was stored at 4° C. and dissolved in culture medium at the day of use. The final concentrations of ACTH were chosen based on a dose-response curve in HAC15 cells and previously reported studies in the literature. For HAC15, 200,000 and 100,000 cells were plated in 0.5 ml medium in 24 well plates for experiments of 1 and 3 days, respectively. For AtT20, cell amounts were 100,000 and 30,000. One day after seeding the HAC15 cells, the medium was refreshed and cells were treated 1 or 3 days in quadruplicate with levoketoconazole or racemic ketoconazole (0.05-5 μM), with or without 10 nM ACTH. To study effects of both compounds on pituitary AtT20 cells, concentrations of 0.1 to 10 μM of both drugs were used. Controls were vehicle treated. […] Media were collected after 1 or 3 days of incubation and stored at −20° C. until analysis. All cell culture experiments were carried out at least twice.
as §3, §4

[5] = test system: EAS associated adrenal hyperplasia no. 1 primary culture; experiment: Steroid profile by LC/MS-MS in EAS associated adrenal hyperplasia no. 1; format: cell-based, human; settings: EAS associated adrenal hyperplasia no. 1
Description: as §1
Primary culture conditions for primary cultures were similar as described in the section ‘cell culture and compounds’, but with small adjustments: ACTH was used at a concentration of 85 pM (250 pg/mL), treatment was started 3-4 days after plating of the cells and cells were incubated for 3 days, and; for pituitary primary cultures, levoketoconazole and racemic ketoconazole were only tested at a concentration of 1 μM. Owing to a limited number of cells obtained from the specimens, not all experiments were carried out in every primary culture.
as §3, §4

Question: How did the “mean increase in cortisol by ACTH stimulation” value (HAC15 cells [1]; 1 day of incubation) turn out when “ACTH: Synacten (synthetic ACTH, Novartis Pharma A.G.), used to stimulate cortisol production” was run?
Answer: 34%

Question: What about the “mean increase in cortisol by ACTH stimulation” value (HAC15 cells [1]; 3 days of incubation) of the same substance?
Answer: 61%

Question: What about the “ACTH stimulated cortisol (%)” value [2] of the same substance?
Answer: +228%

Question: What about the “ACTH stimulated cortisol (%)” value [3] of the same substance?
Answer: +67% *

Question: What about the “increase of corticosterone under ACTH” value (HAC15 cells [4]) of the same substance?
Answer: 359%

Question: What about the “increase of progesterone under ACTH” value (HAC15 cells [4]) of the same substance?
Answer: 7%

Question: And the “change of progesterone by ACTH stimulation” value [5]?
Answer: −11%

Question: What about the “change of testosterone by ACTH stimulation” value [5] of the same substance?
Answer: did not change

Question: And the “mean increase of corticosterone, 17-OHP, 11-DOC, cortisol and androstenedione by ACTH stimulation” value [5]?
Answer: +111%
